This is an account of results in US8969516B2, “Method of hydrolysis of peptide bond” (priority 2006, dated 2015).

The data set in a line: MALDI-TOF screening of Ni^2+ dependent hydrolysis in a combinatorial peptide library. The data set is classed as physicochemical. The settings on record: CH3CO-Gly-Ala-Ser-X-His-Z-Lys-Phe-Leu-NH2 library, Ni^2+ 2 mM, pH 8.2, 10 mM Tris, score=24/tm. Summed up: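 MALDI-TOF read-out: appearance of Ser/Thr-X-His-Z-Lys-Phe-Leu-NH2 product signals, plus loss of substrate signals, checked by eye at 2, 4, 6, 8 h. Conditions: 1 mM peptide mixture, 2 mM Ni2+, 10 mM Tris pH 8.2, 37 or 45 °C.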

On to Ac-GASRHHKFL-NH2 [SRHH], for which the “hydrolysis score from MALDI-TOF screening” value (shortened to “hydrolysis score”) is, setting by setting: (37° C.) 4 (a score of 4 for detection at 6 hours); (45° C.) 4 (a score of 4 for detection at 6 hours).

Ac-GASRHIKFL-NH2 [SRHI]: the “hydrolysis score” value by setting is: (37° C.) 12 (a score of 12, if it was seen to be partially hydrolysed at 2 hours); (45° C.) 12 (a score of 12, if it was seen to be partially hydrolysed at 2 hours).

With Ac-GASRHKKFL-NH2 [SRHK], the “hydrolysis score” value is, setting by setting: (37° C.) 6 (a score of 6 for detection at 4 hours); (45° C.) 12 (a score of 12, if it was seen to be partially hydrolysed at 2 hours).

With Ac-GASRHLKFL-NH2 [SRHL], the “hydrolysis score” value is reported as 12 (a score of 12, if it was seen to be partially hydrolysed at 2 hours) (37° C.) and 12 (a score of 12, if it was seen to be partially hydrolysed at 2 hours) (45° C.).

Take Ac-GASRHMKFL-NH2 [SRHM]: the “hydrolysis score” value (37° C.) is listed as 3 (a score of 3 for detection at 8 hours) and the “hydrolysis score” value (45° C.) is given as 3 (a score of 3 for detection at 8 hours).

For Ac-GASRHNKFL-NH2 [SRHN], the “hydrolysis score” value is recorded as 0 (a score of 0 if no trace of the product of hydrolysis was seen after 8 hours of incubation) (37° C.) and 0 (a score of 0 if no trace of the product of hydrolysis was seen after 8 hours of incubation) (45° C.).

As to Ac-GASRHPKFL-NH2 [SRHP], the “hydrolysis score” value is, setting by setting: (37° C.) 0 (a score of 0 if no trace of the product of hydrolysis was seen after 8 hours of incubation); (45° C.) 0 (a score of 0 if no trace of the product of hydrolysis was seen after 8 hours of incubation).

Turning to Ac-GASRHQKFL-NH2 [SRHQ], the “hydrolysis score” value (37° C.) is 0 (a score of 0 if no trace of the product of hydrolysis was seen after 8 hours of incubation) and the “hydrolysis score” value (45° C.) was 0 (a score of 0 if no trace of the product of hydrolysis was seen after 8 hours of incubation).

For Ac-GASRHRKFL-NH2 [SRHR], the “hydrolysis score” value (37° C.) was 4 (a score of 4 for detection at 6 hours) and the “hydrolysis score” value (45° C.) was 12 (a score of 12, if it was seen to be partially hydrolysed at 2 hours).

Consider Ac-GASRHSKFL-NH2 [SRHS], for which the “hydrolysis score” value (37° C.) is recorded as 3 (a score of 3 for detection at 8 hours) and the “hydrolysis score” value (45° C.) is 4 (a score of 4 for detection at 6 hours).

In the case of Ac-GASRHTKFL-NH2 [SRHT], the “hydrolysis score” value runs as follows: (37° C.) 0 (a score of 0 if no trace of the product of hydrolysis was seen after 8 hours of incubation); (45° C.) 3 (a score of 3 for detection at 8 hours).

For the substance Ac-GASRHVKFL-NH2 [SRHV], the “hydrolysis score” value reads like this: (37° C.) 6 (a score of 6 for detection at 4 hours); (45° C.) 12 (a score of 12, if it was seen to be partially hydrolysed at 2 hours).

On to Ac-GASRHYKFL-NH2 [SRHY], for which the “hydrolysis score” value was 4 (a score of 4 for detection at 6 hours) (37° C.) and 6 (a score of 6 for detection at 4 hours) (45° C.).

Ac-GASSHAKFL-NH2 [SSHA]: the “hydrolysis score” value was 0 (a score of 0 if no trace of the product of hydrolysis was seen after 8 hours of incubation) (37° C.) and 3 (a score of 3 for detection at 8 hours) (45° C.).

For Ac-GASSHDKFL-NH2 [SSHD], the “hydrolysis score” value runs as follows: (37° C.) 0 (a score of 0 if no trace of the product of hydrolysis was seen after 8 hours of incubation); (45° C.) 3 (a score of 3 for detection at 8 hours).

On to Ac-GASSHEKFL-NH2 [SSHE], for which the “hydrolysis score” value is 0 (a score of 0 if no trace of the product of hydrolysis was seen after 8 hours of incubation) (37° C.) and 3 (a score of 3 for detection at 8 hours) (45° C.).

As for Ac-GASSHFKFL-NH2 [SSHF], the “hydrolysis score” value was 3 (a score of 3 for detection at 8 hours) (37° C.) and 3 (a score of 3 for detection at 8 hours) (45° C.).

As to Ac-GASSHGKFL-NH2 [SSHG], the “hydrolysis score” value reads like this: (37° C.) 0 (a score of 0 if no trace of the product of hydrolysis was seen after 8 hours of incubation); (45° C.) 3 (a score of 3 for detection at 8 hours).

For the substance Ac-GASSHHKFL-NH2 [SSHH], the “hydrolysis score” value is listed as 0 (a score of 0 if no trace of the product of hydrolysis was seen after 8 hours of incubation) (37° C.) and 3 (a score of 3 for detection at 8 hours) (45° C.).

Ac-GASSHIKFL-NH2 [SSHI]: the “hydrolysis score” value is, setting by setting: (37° C.) 6 (a score of 6 for detection at 4 hours); (45° C.) 6 (a score of 6 for detection at 4 hours).

Take Ac-GASSHKKFL-NH2 [SSHK]: the “hydrolysis score” value was 4 (a score of 4 for detection at 6 hours) (37° C.) and 6 (a score of 6 for detection at 4 hours) (45° C.).

As to Ac-GASSHLKFL-NH2 [SSHL], the “hydrolysis score” value reads like this: (37° C.) 6 (a score of 6 for detection at 4 hours); (45° C.) 6 (a score of 6 for detection at 4 hours).

Regarding Ac-GASSHNKFL-NH2 [SSHN], the “hydrolysis score” value was 0 (a score of 0 if no trace of the product of hydrolysis was seen after 8 hours of incubation) (37° C.) and 0 (a score of 0 if no trace of the product of hydrolysis was seen after 8 hours of incubation) (45° C.).

Regarding Ac-GASSHPKFL-NH2 [SSHP], the “hydrolysis score” value is, setting by setting: (37° C.) 0 (a score of 0 if no trace of the product of hydrolysis was seen after 8 hours of incubation); (45° C.) 0 (a score of 0 if no trace of the product of hydrolysis was seen after 8 hours of incubation).

As to Ac-GASSHQKFL-NH2 [SSHQ], the “hydrolysis score” value is reported as 0 (a score of 0 if no trace of the product of hydrolysis was seen after 8 hours of incubation) (37° C.) and 0 (a score of 0 if no trace of the product of hydrolysis was seen after 8 hours of incubation) (45° C.).

Take Ac-GASSHRKFL-NH2 [SSHR]: the “hydrolysis score” value by setting is: (37° C.) 6 (a score of 6 for detection at 4 hours); (45° C.) 6 (a score of 6 for detection at 4 hours).

For the substance Ac-GASSHSKFL-NH2 [SSHS], the “hydrolysis score” value runs as follows: (37° C.) 0 (a score of 0 if no trace of the product of hydrolysis was seen after 8 hours of incubation); (45° C.) 3 (a score of 3 for detection at 8 hours).

As to Ac-GASSHTKFL-NH2 [SSHT], the “hydrolysis score” value reads like this: (37° C.) 0 (a score of 0 if no trace of the product of hydrolysis was seen after 8 hours of incubation); (45° C.) 0 (a score of 0 if no trace of the product of hydrolysis was seen after 8 hours of incubation).

In the case of Ac-GASSHVKFL-NH2 [SSHV], the “hydrolysis score” value runs as follows: (37° C.) 3 (a score of 3 for detection at 8 hours); (45° C.) 4 (a score of 4 for detection at 6 hours).

For the substance Ac-GASSHWKFL-NH2 [SSHW], the “hydrolysis score” value runs as follows: (37° C.) 6 (a score of 6 for detection at 4 hours); (45° C.) 12 (a score of 12, if it was seen to be partially hydrolysed at 2 hours).

In the case of Ac-GASSHYKFL-NH2 [SSHY], the “hydrolysis score” value reads like this: (37° C.) 3 (a score of 3 for detection at 8 hours); (45° C.) 3 (a score of 3 for detection at 8 hours).

In the case of Ac-GASTHAKFL-NH2 [STHA], the “hydrolysis score” value (37° C.) is on record as 0 (a score of 0 if no trace of the product of hydrolysis was seen after 8 hours of incubation) and the “hydrolysis score” value (45° C.) is 0 (a score of 0 if no trace of the product of hydrolysis was seen after 8 hours of incubation).

For Ac-GASTHDKFL-NH2 [STHD], the “hydrolysis score” value (37° C.) was 0 (a score of 0 if no trace of the product of hydrolysis was seen after 8 hours of incubation) and the “hydrolysis score” value (45° C.) is 0 (a score of 0 if no trace of the product of hydrolysis was seen after 8 hours of incubation).

For Ac-GASTHEKFL-NH2 [STHE], the “hydrolysis score” value runs as follows: (37° C.) 0 (a score of 0 if no trace of the product of hydrolysis was seen after 8 hours of incubation); (45° C.) 0 (a score of 0 if no trace of the product of hydrolysis was seen after 8 hours of incubation).

As for Ac-GASTHFKFL-NH2 [STHF], the “hydrolysis score” value runs as follows: (37° C.) 0 (a score of 0 if no trace of the product of hydrolysis was seen after 8 hours of incubation); (45° C.) 3 (a score of 3 for detection at 8 hours).

Take Ac-GASTHGKFL-NH2 [STHG]: the “hydrolysis score” value is recorded as 0 (a score of 0 if no trace of the product of hydrolysis was seen after 8 hours of incubation) (37° C.) and 0 (a score of 0 if no trace of the product of hydrolysis was seen after 8 hours of incubation) (45° C.).

Turning to Ac-GASTHHKFL-NH2 [STHH], the “hydrolysis score” value reads like this: (37° C.) 0 (a score of 0 if no trace of the product of hydrolysis was seen after 8 hours of incubation); (45° C.) 3 (a score of 3 for detection at 8 hours).

Consider Ac-GASTHIKFL-NH2 [STHI], for which the “hydrolysis score” value runs as follows: (37° C.) 4 (a score of 4 for detection at 6 hours); (45° C.) 6 (a score of 6 for detection at 4 hours).

For the substance Ac-GASTHKKFL-NH2 [STHK], the “hydrolysis score” value runs as follows: (37° C.) 3 (a score of 3 for detection at 8 hours); (45° C.) 6 (a score of 6 for detection at 4 hours).
